Common to all, as to assay: NCI anticancer screen, dose series, 48 h
Test [1] deals with HOP-62 NSCLC.
Test [2] relates to M14 melanoma.
In test [3] the test system is NCI-H522 lung.
Test [4] has as its system ACHN renal.
The test system of test [5] is MCF7 breast.
Test [6] relates to NCI/ADR-RES ovarian.
The subject of test [7] is HCT-15 colon.
Test [8] concerns SF-268 CNS.

These results are taken from PubChem BioAssay (NCI).

Values joined by “and” are separate entries in the source; they are usually repeats but may differ in a detail not shown here. Equal entries are not always repeated.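 Five concentrations, 48 hours, 96-well plates. Abbreviation: GI50, concentration required for 50% inhibition of growth. At the TGI there is no net growth.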

On to `Nc1nc(Cl)nc2c1ncn2C1CCC(COP(=O)(O)OP(=O)(O)OP(=O)(O)O)O1` (centres undefined), for which the TGI in test [1] was 51.1 µM; in test [2], 36.7 µM; in test [3], more than 100 µM; in test [4], more than 100 µM; in test [5] it was more than 100 µM; in test [6], 55.8 µM. Also, the figures for the TGI in test [7] and in test [8] were 79.3 µM and more than 100 µM, respectively.

Turning to `Cc1ccc(C)c(N2C(=O)C(=O)c3c(C)ccc(C)c32)c1`, the TGI in test [1] is more than 100 µM; in test [2], 39.6 µM; in test [3], 38.6 µM; in test [4], 33.4 µM; in test [5], 59 µM; in test [6], 62.9 µM. The TGI in test [7] came to 27.2 µM; in test [8], 78.2 µM.

Take `O=C(Nc1cccc(-n2cc(-c3ccncc3)c(-c3ccc(O)c(Cl)c3)n2)c1)c1ccc(N2CCOCC2)c(C(F)(F)F)c1`: the GI50 was 3.07 µM in test [1]; 2.75 µM in test [2]; 2.22 µM in test [3]; 2.18 µM in test [4]; 2.03 µM in test [5]; 4.24 µM in test [6]. Moreover, the figures for the GI50 in test [7] and in test [8] were 1.21 µM and more than 50 µM, respectively. Besides, the TGI in test [1], in test [2], in test [3], in test [4], in test [5] and in test [6] was more than 50 µM each time. In addition, the TGI in test [7] and in test [8] was more than 50 µM throughout.

On to `C=CCCC(O)c1ccc(CCCCCCCCCCC)o1` (centres undefined), for which the GI50 is 17.3 µM in test [1]; 17.2 µM in test [2]; 17 µM in test [3]; 15.6 µM in test [4]; 20.3 µM in test [5]; 18.9 µM in test [6]. Also, the GI50 in test [7] is 17 µM; in test [8], 19.3 µM. The TGI is 32.2 µM in test [1]; 32.4 µM in test [2]; 32.8 µM in test [3]; 28.9 µM in test [4]; 50.9 µM in test [5]; 35.5 µM in test [6]. Moreover, the TGI in test [7] came out at 31.5 µM; in test [8], 43.9 µM.

Take `O=C(O)CP(=O)(c1ccccc1)c1ccccc1.O=C(O)CP(=O)(c1ccccc1)c1ccccc1.[Cd]`: the GI50 is 18.6 µM in test [1]; 17.3 µM in test [2]; 0.403 µM in test [3]; 16.1 µM in test [4]; 27.2 µM in test [5]; 21.9 µM in test [6]. In addition, the values for the GI50 in test [7] and in test [8] were 9.21 µM and 37.3 µM, respectively. The TGI in test [1] was 46.1 µM; in test [2], 53.8 µM; in test [3] it was 2.77 µM; in test [4] it was 30.4 µM; in test [5], more than 100 µM; in test [6], 52.2 µM. Further, the TGI is 22.9 µM in test [7] and more than 100 µM in test [8].

As for `Cc1cccc2c1NC(=O)C2(c1ccc(O)cc1)c1ccc(O)cc1`, the GI50 in test [1] was 14.8 µM; in test [2], 15.5 µM; in test [3], 12.6 µM; in test [4], 12.4 µM; in test [5], 0.0219 µM; in test [6] it was 0.133 µM. Further, the GI50 in test [7] was 0.53 µM; in test [8], 19.8 µM. The TGI in test [1] was 38.3 µM; in test [2], 41 µM; in test [3] it was 33.4 µM; in test [4], more than 100 µM; in test [5], more than 59.6 µM; in test [6] it was more than 100 µM. Besides, the TGI in test [7] and in test [8] was more than 100 µM each time.

As for `O=C(OC(CNc1c(C(=O)c2ccccc2)c(=O)n(Cc2ccccc2)c(=O)n1Cc1ccccc1)CN1CCCCC1)c1ccccc1` (centres undefined), the GI50 in test [1] was 18 µM; in test [2] it was 16.3 µM; in test [3], 21.1 µM; in test [4], 30.1 µM; in test [5] it was 20.7 µM; in test [6], 17.6 µM. Besides, the GI50 was 13.5 µM in test [7] and 24.1 µM in test [8]. Further, the TGI was 33.6 µM in test [1]; 31.1 µM in test [2]; 40.7 µM in test [3]; more than 100 µM in test [4]; 39.4 µM in test [5]; 34.5 µM in test [6]. The values for the TGI in test [7] and in test [8] were 26.3 µM and 53.2 µM, respectively.

Regarding `COc1cccc2cc(-c3nc(C4CCC(C(=O)O)CC4)n4ncnc(N)c34)[nH]c12` (centres undefined), the GI50 in test [1] is 0.305 µM and 0.338 µM; in test [2], 0.219 µM and 0.36 µM; in test [3], 0.0712 µM and 0.209 µM; in test [4], 0.42 µM and 1.03 µM; in test [5] it was 0.155 µM and 0.22 µM; in test [6], 0.406 µM and 0.804 µM. For the same molecule, the GI50 in test [7] was 0.558 µM and 0.973 µM; in test [8], 0.294 µM and 0.301 µM. Further, the TGI in test [1] is 3.64 µM and 4.83 µM; in test [2], 3.76 µM and > 7.22 µM; in test [3] it was 1.92 µM and > 8.47 µM; in test [4], 15.5 µM and > 10 µM; in test [5], more than 35.7 µM; in test [6], 10.3 µM and > 10 µM. In addition, the TGI in test [7] is more than 100 µM; in test [8], 19.5 µM and > 10 µM.

On to `O=C1c2ccccc2CCC1(Br)Br`, for which the GI50 is 6.32 µM in test [1]; 2.08 µM in test [2]; 0.293 µM in test [3]; 1.21 µM in test [4]; 1.56 µM in test [5]; 3.4 µM in test [6]. Further, the GI50 is 0.743 µM in test [7] and 4.1 µM in test [8]. The TGI in test [1] came out at 17.8 µM; in test [2], 5.12 µM; in test [3] it was 0.793 µM; in test [4], 2.55 µM; in test [5] it was 3.89 µM; in test [6], 17.3 µM. For the same molecule, the values for the TGI in test [7] and in test [8] were 2.24 µM and 14.1 µM, respectively.

Regarding `Cc1ccc(C(CC(=O)c2ccccc2)C(C(=O)c2ccccc2)C(c2ccc(C)cc2)C2C(=O)NC(=S)NC2=O)cc1` (centres undefined), the GI50 was more than 50 µM in test [1]; 27.2 µM in test [2]; 7.87 µM in test [3]; 11.3 µM in test [4]; 10.6 µM in test [5]; 8.05 µM in test [6]. Moreover, the results for the GI50 in test [7] and in test [8] were 17 µM and 16.8 µM, respectively. The TGI in test [1] was more than 50 µM; in test [2], more than 50 µM; in test [3], 30.2 µM; in test [4] it was more than 50 µM; in test [5], more than 50 µM; in test [6], more than 50 µM. Besides, the TGI in test [7] and in test [8] was more than 50 µM each time.
